Experimental data reported in ChEMBL document CHEMBL1151899, “Oleanane-type isomeric triterpenoids from Barringtonia racemosa” (J Nat Prod, 2009).

How the values were obtained:
[1] = Cytotoxicity against mouse P388D1 cells by MTT assay; assay type: functional, cell-based
HeLa = experiment: Cytotoxicity against human HeLa cells by MTT assay; assay type: functional, cell-based

Compound | IC50 [1] | IC50 (HeLa)
CCC(C)C(=O)OC[C@@]12[C@H](O)[C@H](O)[C@]3(C)C(=CC[C@@H]4[C@@]5(C)CC[C@H](O)C(C)(C)[C@@H]5CC[C@]43C)[C@@H]1CC(C)(C)[C@@H](O)[C@@H]2OC(C)=O (stereo partly drawn) [RACEMOSOL A] | > 50 µM | > 50 µM
CC1(C)C[C@H]2C3=CC[C@@H]4[C@@]5(C)CC[C@H](O)C(C)(C)[C@@H]5CC[C@@]4(C)[C@]3(C)C[C@@H](O)[C@@]2(CO)[C@@H](O)[C@@H]1O [BARRINGTOGENOL C] | > 50 µM | > 50 µM
CC[C@H](/C=C/[C@@H](C)[C@H]1CC[C@H]2[C@@H]3CC=C4C[C@@H](O)CC[C@]4(C)[C@H]3CC[C@]12C)C(C)C [STIGMASTEROL] | > 50 µM | > 50 µM
CC1(C)CC[C@]2(C(=O)O)CC[C@]3(C)C(=CC[C@@H]4[C@@]5(C)C[C@@H](O)[C@H](O)[C@@](C)(C(=O)O)[C@@H]5CC[C@]43C)[C@@H]2[C@@H]1O [BARTOGENIC ACID] | > 50 µM | > 50 µM
CCC(C)C(=O)O[C@H]1[C@H](OC(C)=O)C(C)(C)C[C@H]2C3=CC[C@@H]4[C@@]5(C)CC[C@H](O)C(C)(C)[C@@H]5CC[C@@]4(C)[C@]3(C)[C@@H](O)[C@@H](O)[C@]21CO (stereo partly drawn) [ISORACEMOSOL A] | > 50 µM | > 50 µM
